Consider 46 compounds from BindingDB's records for doi:10.7270/Q2H70D5W (University of Pittsburgh, 2007).

The target in the assay is Gag-Pol polyprotein (Human immunodeficiency virus type 1 group M subtype B (isolate HXB2), UniProt P04585). The experiment in a line: concentration-response of HIV-1 RNase H blockers – biochemical, probe assessment, dose response (AID 652). To be noted: pH 8; 23 °C.
What is called IC50 is the concentration needed to halve the response being measured. Read a low IC50 as inhibition by little substance. `CC(C)Cn1c(SCC(=O)NC(=O)Nc2ccc3c(c2)OCCO3)nc2ccccc2c1=O` [MLS000057544] displayed a half-inhibitory concentration (IC50) of 4.47 µM. Under `Cc1sc(NC(=O)c2oc3ccccc3c2C)c(C#N)c1C` [MLS000065828] stands 10.8 µM. The compound `CCCc1cc(C(N)=O)c(NC(=O)C2CCCO2)s1` (stereo unspecified) [MLS000065925] showed an IC50 of 1.89 µM. Compound `COc1ccc(OC)c(C=Nc2oc(-c3ccco3)c(-c3ccco3)c2C#N)c1` [MLS000068778] yielded an IC50 of 4.02 µM. Against the preceding compound, the IC50 is about 2.1-fold higher. Compound `Cc1ccc(NC(=O)CSc2nnc(-c3ccc(S(=O)(=O)N4CCCC4)cc3)o2)cc1C` [MLS000071775] yielded a concentration for half-maximal inhibition (IC50) of 12.3 µM. Turning to `O=C(NC1CCS(=O)(=O)C1)c1c(NC(=O)C2COc3ccccc3O2)sc2c1CCCC2` (stereo unspecified) [MLS000077500], the IC50 is 46.3 µM. With `CCC1CC2(C)NC(=O)c3c(sc4c3CC(C)(C)OC4)N2C1=O` (stereo unspecified) [MLS000077638] the figure was 2.88 µM; with `Cc1cccc(N2CSC3=C(C#N)C(c4ccc(C)o4)CC(=O)N3C2)c1` (stereo unspecified) [MLS000080648], 0.434 µM. `COc1cc(OC)c(C2CC(=O)N3CN(c4ccccc4C)CSC3=C2C#N)cc1OC` (stereo unspecified) [MLS000080656] yielded a 50% inhibitory concentration (IC50) of 4.51 µM. Compared with the last compound, the IC50 is about 10-fold higher. In turn, `O=S(=O)(NS1=CC=CCN1S(=O)(=O)c1ccccc1)c1ccccc1` (stereo unspecified) [MLS000081951] came in with an IC50 of 4.33 µM. This IC50 and that of the compound before are within 1.5-fold of each other. Compound `CCOC(=O)Cc1csc(-n2sc3ccccc3c2=O)n1` [MLS000082162] came in with a concentration for half-maximal inhibition (IC50) of 0.598 µM. This IC50 lies about 7.2-fold lower than the previous one. With `CC(C)c1nc2sc3c(SCC(=O)NCc4ccco4)ncnc3c2c2c1CCC2` [MLS000082582], half-maximal inhibition (IC50) required 2.28 µM. `CC(C)Sc1nc2sc3c(c2c2nnc(SCC(=O)NCc4ccco4)n12)CCCC3` [MLS000082957]: the IC50 was 3.01 µM. As for `COc1cccc(OC)c1-c1nn2c(-c3cc(-c4ccccc4)n[nH]3)nnc2s1` [MLS000083027], it took 3.81 µM to reach half-maximal inhibition (IC50). Take `O=C(CSc1nnnn1-c1ccccc1)Nc1nsc(-c2ccc(Cl)cc2)n1` [MLS000085595]: the half-maximal inhibitory concentration (IC50) is 15.7 µM. Against the preceding compound, the IC50 is about 4.1-fold higher. With `CCOC(=O)N(c1ccccc1)P1(=S)OCCO1` [MLS000090301] the figure was 3.25 µM; with `CCCSc1nc2c(cnn2-c2ccc(Cl)cc2)c(=O)[nH]1` [MLS000091828], 9.64 µM. Compound `COc1cccc(OCC(=O)Nc2c(C(=O)Nc3ccc(OC)cc3OC)oc3ccccc23)c1` [MLS000093002] showed an IC50 of 1.77 µM. Compared with the last compound, the IC50 is about 5.4-fold lower. With `CCOC(=O)c1sc(=S)n2c1[nH]c(=O)c1ccc(C(=O)OC)cc12` [MLS000094734], half-maximal inhibition (IC50) was put at 0.648 µM. The compound `CC(C)C1N=C2c3ccccc3N=C(SCC(=O)c3ccc(O)c(O)c3)N2C1=O` (stereo unspecified) [MLS000094866] came in with an IC50 of 0.59 µM. As for `CCCCC(CC)Cn1c2nc3ccccc3nc2c2c(=N)oc(C)nc21` (stereo unspecified) [MLS000098038], half-maximal inhibition (IC50) required 2.33 µM. On to `O=C(CSc1nc2sc3c(c2c(=O)n1-c1ccccc1)CCCC3)NCc1ccco1` [MLS000115858], for which the concentration for half-maximal inhibition (IC50) was 17.2 µM. `CCCc1cc(C(=O)Nc2sc3c(c2C#N)CCC3)no1` [MLS000116386]: the IC50 was 2.8 µM.

`CC(C)Cc1cc(C(=O)Nc2sc3c(c2C#N)CCCC3)no1` [MLS000116410] showed an IC50 of 4.76 µM. As for `CC(C)c1ccc(C2CC(=O)N3CN(C)CSC3=C2C#N)cc1` (stereo unspecified) [MLS000117258], 10.7 µM corresponded to half-maximal inhibition (IC50). This IC50 is about 2.2-fold higher than that of the compound before. Compound `COc1ccc(N2CSC3=C(C#N)C(c4cc(OC)c(OC)cc4OC)CC(=O)N3C2)c(OC)c1` (stereo unspecified) [MLS000117261] had an IC50 of 11.9 µM.

Compound `COc1ccc(OC)c(CCNC(=O)Cn2sc3nc(C)cc(C)c3c2=O)c1` [MLS000118887] came in with a half-inhibitory concentration (IC50) of 3.08 µM. With `CC(=O)N(Cc1cc(=O)[nH]c2ccccc12)c1cccc(C)c1` [N-(3-methylphenyl)-N-[(2-oxidanylidene-1H-quinolin-4-yl)methyl]ethanamide] the figure was 5.08 µM; with `CCC(C)c1ccc2oc(-c3ccc(NC(=O)c4nnc[nH]4)cc3)nc2c1` (stereo unspecified) [N-[4-(5-sec-butyl-1,3-benzoxazol-2-yl)phenyl]-1H-1,2,4-triazole-3-carboxamide], 6.07 µM; with `COc1ccc(OC)c(S(=O)(=O)Nc2ccc(O)c(Sc3nc[nH]n3)c2)c1` [N-[4-hydroxy-3-(1H-1,2,4-triazol-3-ylthio)phenyl]-2,5-dimethoxybenzenesulfonamide], 2.46 µM.

For the compound `COC(=O)c1ccccc1S(=O)(=O)N(Cc1cc2cc3c(cc2[nH]c1=O)OCO3)C1CCCCC1` [SMR000002998], the half-inhibitory concentration (IC50) came out at 21.1 µM. On to `CCC(C)Sc1nc2c(c(=O)[nH]c(=O)n2C)n1CC(O)COc1cccc2ccccc12` (stereo unspecified) [SMR000009990], for which the concentration for half-maximal inhibition (IC50) was found to be 4 µM. This IC50 is about 5.3-fold lower than that of the compound before. Under `CC1=C(SCCC#N)S/C(=C2\SC(C)=C(SCCC#N)S2)S1` [SMR000011057] stands 2.8 µM; under `COC(=O)c1cccc(N2C(=O)C(Cl)=C(N3CCOCC3)C2=O)c1` [SMR000014938], greater than 50 µM. Take `COc1ccc(-n2c(SCC(=O)N3CCCC3)nc3c([nH]c4ccccc43)c2=O)cc1` [SMR000018494]: the midpoint of inhibition, the IC50, lay at 16.6 µM.

Consider `COc1ccc(C2C(C(C)=O)=C(C)N=c3sc(=Cc4ccc5c(c4)OCO5)c(=O)n32)cc1` (stereo unspecified) [SMR000020852], for which inhibition was half-maximal at 7.02 µM (IC50). `COc1cc(/N=c2/ssnc2Cl)cc(OC)c1OC` [SMR000025034] yielded an IC50 of 0.281 µM. This IC50 is about 25-fold lower than that of the compound before. Take `O=C(NC1CCCCC1)c1sc(=S)n2c1[nH]c(=O)c1ccccc12` [SMR000030293]: it took 0.645 µM to reach half-maximal inhibition (IC50). Turning to `CCCCCCNC(=O)c1c(N)n(N=Cc2ccco2)c2nc3ccccc3nc12` [SMR000042381], half-maximal inhibition (IC50) required 2.77 µM. With `Cc1nn(CCc2nc(-c3ccco3)cs2)c2nc(O)cc(C(F)(F)F)c12` [SMR000060922] the figure was 1.97 µM; with `CCOC(=O)C1=C(C)N=c2s/c(=C3/C(=O)Nc4ccccc43)c(=O)n2C1c1ccc2c(c1)OCO2` (stereo unspecified) [SMR000072283], 1.07 µM; with `S=c1[nH]c(C2CC2)nc2ccccc12` [SMR000075851], 2.06 µM. `CCOC(=O)c1sc(NC(=O)CSc2nnc(-c3ccccc3)[nH]2)c(C#N)c1C` [ethyl 4-cyano-3-methyl-5-[[2-[(5-phenyl-1H-1,2,4-triazol-3-yl)sulfanyl]acetyl]amino]thiophene-2-carboxylate] came in with an IC50 of 0.67 µM. For `CCOC(=O)c1c(C)[nH]c(C(=O)CSc2nc3ccccc3o2)c1C` [ethyl 5-[2-(1,3-benzoxazol-2-ylsulfanyl)ethanoyl]-2,4-dimethyl-1H-pyrrole-3-carboxylate], the half-maximal inhibitory concentration (IC50) was found to be 7.6 µM. With `COC(=O)c1ccc2c(=O)[nH]c(CN3c4ccccc4CC3C)nc2c1` (stereo unspecified) [methyl 2-[(2-methyl-2,3-dihydroindol-1-yl)methyl]-4-oxo-1H-quinazoline-7-carboxylate] the figure was 13.3 µM. In turn, `C=CCOC(=O)C1=C(C)N=C(SCC(=O)Nc2ccc(C)c(Cl)c2)C(C#N)C1c1ccco1` (stereo unspecified) [prop-2-enyl 6-[2-(3-chloro-4-methylanilino)-2-oxoethyl]sulfanyl-5-cyano-4-(furan-2-yl)-2-methyl-1,4-dihydropyridine-3-carboxylate] displayed an IC50 of 4.25 µM.
